In patent US12516044B2, “Heterocyclic compounds as immunomodulators” (Incyte Corporation, priority 2015, dated 2026) one finds IC50 data, which are given here for 33 molecules.

Molecules are shown by their SMILES.

T1 sequence (Q9NZQ7 19-238): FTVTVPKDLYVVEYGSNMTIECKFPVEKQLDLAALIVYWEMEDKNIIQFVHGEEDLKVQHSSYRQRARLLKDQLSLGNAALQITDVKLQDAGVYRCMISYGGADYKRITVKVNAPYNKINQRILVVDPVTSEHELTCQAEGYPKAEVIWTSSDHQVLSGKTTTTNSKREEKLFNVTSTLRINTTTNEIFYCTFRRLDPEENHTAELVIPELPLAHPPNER

The assay concerns the target T1, PD-1/PD-L1 protein/protein interaction (Homo sapiens, UniProt Q9NZQ7).
T1 construct: Recombinant human PD-L1 protein (19-238) with a His-tag at the C-terminus; purchased AcroBiosystems PD1-H5229 (PD-L1-His); PD1-H5257 (PD-1-Fc)
The experiment in a line: PD-1/PD-L1 Homogeneous Time-Resolved Fluorescence (HTRF) Binding Assay. As to conditions: recombinant human PD-L1 (19-238) His-tag and human PD-1 (25-167) Fc tag; 25° C., PBS pH 7.4. As for the experimental part: Example A. PD-1/PD-L1 Homogeneous Time-Resolved Fluorescence (HTRF) Binding Assay
The assays were conducted in a standard black 384-well polystyrene plate with a final volume of 20 μL. Inhibitors were first serially diluted in DMSO and then added to the plate wells before the addition of other reaction components. The final concentration of DMSO in the assay was 1%. The assays were carried out at 25° C. in the PBS buffer (pH 7.4) with 0.05% Tween-20 and 0.1% BSA. Recombinant human PD-L1 protein (19-238) with a His-tag at the C-terminus was purchased from AcroBiosystems (PD1-H5229). Recombinant human PD-1 protein (25-167) with Fc tag at the C-terminus was also purchased from AcroBiosystems (PD1-H5257). PD-L1 and PD-1 proteins were diluted in the assay buffer and 10 μL was added to the plate well. Plates were centrifuged and proteins were preincubated with inhibitors for 40 minutes. The incubation was followed by the addition of […] of HTRF detection buffer supplemented with Europium cryptate-labeled anti-human IgG (PerkinElmer-AD0212) specific for Fc and anti-His antibody conjugated to SureLight®-Allophycocyanin (APC, PerkinElmer-AD0059H). After centrifugation, the plate was incubated at 25° C. for 60 min. before reading on a PHERAstar FS plate reader (665 nm/620 nm ratio). Final concentrations in the assay were […] PD1, 10 nM PD-L1, 1 nM europium anti-human IgG and 20 nM anti-His-Allophycocyanin. IC50 determination was performed by fitting the curve of percent control activity versus the log of the inhibitor concentration using the GraphPad Prism 5.0 software.
For the molecule `Cc1cnc(C(=O)Nc2cccc(-c3ccccc3)c2C)cc1CN1CCCC[C@H]1C(=O)O` [Example 36, (2S)-1-[(5-methyl-2-{[(2-methylbiphenyl-3-yl)amino]carbonyl}pyridin-4-yl)methyl]piperidine-2-carboxylic Acid], the IC50 fell in the range of 10 to 100 nM.

Consider `N#Cc1c(NC(=O)c2ccc(CN3CCCC[C@H]3C(=O)O)cn2)cccc1-c1ccccc1` [Example 7, (2S)-1-[(6-{[(2-cyanobiphenyl-3-yl)amino]carbonyl}pyridin-3-yl)methyl]piperidine-2-carboxylic Acid], for which the IC50 was 10 to 100 nM.

As to `Cc1cc(CN2CCCC[C@H]2C(=O)O)cnc1C(=O)Nc1cccc(-c2ccccc2)c1C` [Example 3, (2S)-1-[(5-methyl-6-{[(2-methylbiphenyl-3-yl)amino]carbonyl}pyridin-3-yl)methyl]piperidine-2-carboxylic Acid], the IC50 lay within 100 to 1000 nM.

Regarding `COc1cc(C(=O)Nc2cccc(-c3ccccc3)c2C)ncc1CNCCO` [Example 35, 5-{[(2-hydroxyethyl)amino]methyl}-4-methoxy-N-(2-methylbiphenyl-3-yl)pyridine-2-carboxamide], the IC50 is at most 10 nM.

As to `N#Cc1c(NC(=O)c2ccc(CNCCO)cn2)cccc1C1=CCCCC1` [Example 38, N-(2-cyano-3-cyclohex-1-en-1-ylphenyl)-5-{[(2-hydroxyethyl)amino]methyl} pyridine-2-carboxamide], the IC50 is at most 10 nM.

Take `Cc1cc(C(=O)Nc2cccc(-c3ccccc3)c2C)ncc1CN1CCCC[C@H]1C(=O)O` [Example 32, (2S)-1-[(4-methyl-6-{[(2-methylbiphenyl-3-yl)amino]carbonyl}pyridin-3-yl)methyl]piperidine-2-carboxylic Acid]: the IC50 was at most 10 nM.

As for `Cc1c(NC(=O)c2cc(OCc3ccccn3)c(CNCCO)cn2)cccc1-c1ccccc1` [Example 20, 5-{[(2-hydroxyethyl)amino]methyl}-N-(2-methylbiphenyl-3-yl)-4-(pyridin-2-ylmethoxy)pyridine-2-carboxamide], the 50% inhibitory concentration (IC50) was in the range of 10 to 100 nM.

Regarding `Cc1c(NC(=O)c2ncc(CNCCO)cc2Cl)cccc1-c1ccccc1` [Example 16, 3-chloro-5-{[(2-hydroxyethyl)amino]methyl}-N-(2-methylbiphenyl-3-yl)pyridine-2-carboxamide], the IC50 was in the range of 10 to 100 nM.

As for `Cc1c(NC(=O)c2ccc(CNCCO)cn2)cc(F)cc1-c1ccc2c(c1)OCCO2` [Example 45, N-[3-(2,3-dihydro-1,4-benzodioxin-6-yl)-5-fluoro-2-methylphenyl]-5-{[(2-hydroxyethyl)amino]methyl}pyridine-2-carboxamide], the IC50 was at most 10 nM.

Consider `Cc1c(NC(=O)c2ccc(CNCCO)cn2)ccnc1-c1ccccc1` [Example 43, 5-{[(2-hydroxyethyl)amino]methyl}-N-(3-methyl-2-phenylpyridin-4-yl)pyridine-2-carboxamide], for which the IC50 fell in the range of 100 to 1000 nM.

On to `Cc1c(NC(=O)c2cnccn2)cccc1-c1ccccc1` [Example 26, N-(2-methylbiphenyl-3-yl)pyrazine-2-carboxamide], for which the IC50 was 10 to 100 nM.

Take `Cc1c(NC(=O)c2cc(OCC3CC3)c(CNCCO)cn2)cccc1-c1ccccc1` [Example 34, 4-(cyclopropylmethoxy)-5-((2-hydroxyethylamino)methyl)-N-(2-methylbiphenyl-3-yl)picolinamide]: the half-inhibitory concentration (IC50) lay in the range of 10 to 100 nM.

For `Cc1c(NC(=O)c2cc(C#N)ccn2)cccc1-c1ccccc1` [Example 25, 4-cyano-N-(2-methylbiphenyl-3-yl)pyridine-2-carboxamide], the IC50 was 10 to 100 nM.

As for `Cc1c(NC(=O)c2ccc(CN3CCCC[C@H]3C(=O)O)cn2)ccnc1-c1ccccc1` [Example 42, (S)-1-((6-(3-methyl-2-phenylpyridin-4-ylcarbamoyl)pyridin-3-yl)methyl)piperidine-2-carboxylic Acid], the half-maximal inhibitory concentration (IC50) was above 1000 nM.

Regarding `Cc1cc(C(=O)Nc2cccc(-c3ccccc3)c2C)ncc1CNCCO` [Example 33, 5-{[(2-hydroxyethyl)amino]methyl}-4-methyl-N-(2-methylbiphenyl-3-yl)pyridine-2-carboxamide], the IC50 is at most 10 nM.

Regarding `Cc1c(NC(=O)c2cc(OCc3cccnc3)c(CNCCO)cn2)cccc1-c1ccccc1` [Example 19, 5-{[(2-hydroxyethyl)amino]methyl}-N-(2-methylbiphenyl-3-yl)-4-(pyridin-3-ylmethoxy)pyridine-2-carboxamide], the IC50 is 10 to 100 nM.

As for `Cc1cnc(C(=O)Nc2cccc(-c3ccccc3)c2C)cc1CNCCO` [Example 37, 4-{[(2-hydroxyethyl)amino]methyl}-5-methyl-N-(2-methylbiphenyl-3-yl)pyridine-2-carboxamide], the IC50 lay within 10 to 100 nM.

In the case of `Cc1nc(C(=O)Nc2cccc(-c3ccccc3)c2C)ccc1CN1CCCC[C@H]1C(=O)O` [Example 13, (2S)-1-[(2-methyl-6-{[(2-methylbiphenyl-3-yl)amino]carbonyl}pyridin-3-yl)methyl]piperidine-2-carboxylic Acid], the IC50 lay within 100 to 1000 nM.

For `Cc1nc(C(=O)Nc2cccc(-c3ccccc3)c2C)ccc1CNCCO` [Example 14, 5-{[(2-hydroxyethyl)amino]methyl}-6-methyl-N-(2-methylbiphenyl-3-yl)pyridine-2-carboxamide], the IC50 was in the range of 10 to 100 nM.

In the case of `Cc1c(NC(=O)c2ncc(CN3CCCC[C@H]3C(=O)O)cc2Cl)cccc1-c1ccccc1` [Example 15, (2S)-1-[(5-chloro-6-{[(2-methylbiphenyl-3-yl)amino]carbonyl}pyridin-3-yl)methyl]piperidine-2-carboxylic Acid], the IC50 fell in the range of 100 to 1000 nM.

As to `N#Cc1c(NC(=O)c2ccc(CNCCO)cn2)cccc1C1=COCCC1` [Example 44, N-[2-cyano-3-(3,4-dihydro-2H-pyran-5-yl)phenyl]-5-{[(2-hydroxyethyl)amino]methyl}pyridine-2-carboxamide], the IC50 lay within 10 to 100 nM.

In the case of `Cc1c(NC(=O)c2cc(CNCCO)ccn2)cccc1-c1ccccc1` [Example 23, 4-{[(2-hydroxyethyl)amino]methyl}-N-(2-methylbiphenyl-3-yl)pyridine-2-carboxamide], the IC50 was 10 to 100 nM.

`Cc1c(NC(=O)c2ccnc(OCc3cccnc3)n2)cccc1-c1ccccc1` [Example 30, N-(2-methylbiphenyl-3-yl)-2-(pyridin-3-ylmethoxy)pyrimidine-4-carboxamide]: the IC50 fell in the range of 100 to 1000 nM.

For the molecule `Cc1c(NC(=O)c2cc(OCc3cccc(C#N)c3)c(CNCCO)cn2)cccc1-c1ccccc1` [Example 18, 4-[(3-cyanobenzyl)oxy]-5-{[(2-hydroxyethyl)amino]methyl}-N-(2-methylbiphenyl-3-yl)pyridine-2-carboxamide], the IC50 was in the range of 10 to 100 nM.

Consider `Cc1c(NC(=O)c2ncc(CN3CCCC[C@H]3C(=O)O)cn2)cccc1-c1ccccc1` [Example 5, (2S)-1-[(2-{[(2-methylbiphenyl-3-yl)amino]carbonyl}pyrimidin-5-yl)methyl]piperidine-2-carboxylic Acid], for which the IC50 was 100 to 1000 nM.

As for `Cn1cc2ccc(-c3cccc(NC(=O)c4ccc(CNCCO)cn4)c3C#N)cc2n1` [Example 48, N-[2-cyano-3-(2-methyl-2H-indazol-6-yl)phenyl]-5-{[(2-hydroxyethyl)amino]methyl}pyridine-2-carboxamide], the IC50 fell in the range of 10 to 100 nM.

As for `N#Cc1c(NC(=O)c2ccc(CNCCO)cn2)cccc1C1CCCCC1` [Example 41, N-(2-cyano-3-cyclohexylphenyl)-5-{[(2-hydroxyethyl)amino]methyl}pyridine-2-carboxamide], the IC50 lay within 10 to 100 nM.

On to `Cc1c(NC(=O)c2ccc(CNCCO)cn2)cccc1-c1ccccc1` [Example 2, 5-{[(2-hydroxyethyl)amino]methyl}-N-(2-methylbiphenyl-3-yl)pyridine-2-carboxamide], for which the concentration for half-maximal inhibition (IC50) lay within 10 to 100 nM.

For the molecule `Cc1c(NC(=O)c2ccc(CN3CCCC[C@H]3C(=O)O)cn2)cccc1-c1ccccc1` [Example 1, (2S)-1-[(6-{[(2-methylbiphenyl-3-yl)amino]carbonyl}pyridin-3-yl)methyl]piperidine-2-carboxylic Acid], the IC50 was 10 to 100 nM.

Take `Cc1c(NC(=O)c2ncc(CNCCO)cc2F)cccc1-c1ccccc1` [Example 17, 3-fluoro-5-{[(2-hydroxyethyl)amino]methyl}-N-(2-methylbiphenyl-3-yl)pyridine-2-carboxamide]: the IC50 was in the range of 10 to 100 nM.

With `Cc1c(NC(=O)c2cnc(CNCCO)cn2)cccc1-c1ccccc1` [Example 11, 5-{[(2-hydroxyethyl)amino]methyl}-N-(2-methylbiphenyl-3-yl)pyrazine-2-carboxamide], the concentration for half-maximal inhibition (IC50) lay within 10 to 100 nM.

Take `N#Cc1c(NC(=O)c2ccc(CNCCO)cn2)cccc1N1CCCCC1` [Example 39, N-(2-cyano-3-piperidin-1-ylphenyl)-5-{[(2-hydroxyethyl)amino]methyl}pyridine-2-carboxamide]: the IC50 was above 1000 nM.

For `N#Cc1c(NC(=O)c2ccc(CNCCO)cn2)cccc1-c1ccccc1` [Example 8, N-(2-cyanobiphenyl-3-yl)-5-{[(2-hydroxyethyl)amino]methyl}pyridine-2-carboxamide], the IC50 is at most 10 nM.
